Test results: US7906491B2 (Univisitair Medisch Centrum Utrecht, priority 2002, dated 2011)

How the values were obtained:
Type in all cases: cell-based
[1] = tested on: Rap1; assay: Rap1 activation assay in Ovcar3 cells; conditions: H-89 10 μM, FIG. 7C
Description: (§1) A: 8-pCPT-2′-O-Me-cAMP stimulates cell adhesion. Upper panel: quantification of Ovcar3 cells adhering to fibronectin after treatment with increasing concentrations of 8-pCPT-2′-O-Me-cAMP. Lower panel: Ovcar3 cells were treated with increasing concentrations of 8-pCPT-2′-O-Me-cAMP for 15 min, cells were lysed and analyzed for activation of Rap1 (upper blot) and CREB (lower blot). Total Rap1 levels are shown (middle blot). B: 8-pCPT-2′-O-Me-cAMP increases the rate of cell adhesion. Upper panel: quantification of Ovcar3 cells adhering to fibronectin at various time points. Lower panel: cells were treated with 60 μM 8-pCPT-2′-O-Me-cAMP for the indicated times. Cell lysates were analyzed for activation of Rap1 (upper blot) and CREB (lower blot). Total levels of Rap1 in cell lysates are shown (middle blot). C: Ovcar3 cells were either pre-incubated at 37° C. for 30 min with the PKA inhibitor H-89 (10 μM) 30 min prior to seeding onto the wells (‘Short’) or H-89 was added 30 min prior to trypsinization and during the recovery period (‘Long’) and seeded onto wells in the absence or presence of 8-pCPT-2′-O-Me-cAMP (100 μM). Cells were allowed to adhere for 1 h. D, cAMP-induced adhesion to fibronectin is blocked by inhibitors of Rap1. Left panel: Ovcar3 cells were transiently transfected with either mock DNA, increasing concentrations of HA-Rap1GAP II (0.5, 1, 2 or 6 μg, respectively), HA-Rap1GAPI (6 μg) or HA-RBD of RalGDS (6 μg), respectively. Cells were treated with 8-Br-cAMP or 8-pCPT-2′-O-Me-cAMP and adhesion to fibronectin was determined. Right upper panel: luciferase counts of total input cells per well in the above experiment are shown. Right lower panel: expression of HA-Rap1GAPs in the above experiment is shown.
Rap activation assays were performed as described previously (16-18). […] Proteins were eluted with Laemmli sample buffer and analyzed by sodium dodecyl sulphate (SDS)-polyacrylamide gel electrophoresis and Western blotting using Rap1 antibodies. As a control, Rap1 levels in whole cell lysates were determined.

[2] = tested on: Ovcar3 cells; assay: Adhesion assay of Ovcar3 cells to fibronectin; conditions: H-89 10 μM, 8-pCPT-2′-O-Me-cAMP 100 μM, FIG. 7C
Description: as §1, with “Right upper panel: luciferase counts of total input cells per well in the above experiment are shown. Right lower panel: expression of HA-Rap1GAPs in the above experiment is shown.” left out
In functional assays, 8-pCPT-2′-O-Me-cAMP appeared to induce integrin-mediated cell adhesion through Epac and Rap1. […] The cells were seeded onto fibronectin-coated plates in the presence or absence of 8-pCPT-2′-O-Me-cAMP and the amount of cells that adhered after a certain period of time was quantified. […]
24-well plates were coated overnight with 2 μg/ml fibronectin (Sigma, St. Louis, Mo., USA) in sodium bicarbonate buffer (Sigma, St. Louis, Mo., USA). […] Cells were centrifuged, counted and resuspended at 3×10^5 cells/ml in serum-free RPMI with 0.5% BSA. […]

[3] = tested on: CREB; assay: CREB phosphorylation (read-out for PKA) in NIH3T3-A14-Epac1 cells; conditions: 15 min, 8-Br-cAMP 1 mM
Description: (§2) Upper panel: NIH3T3-A14-Epac1 cells were treated for 15 min with 8-Br-cAMP, and cell lysates were analyzed for activation of Rap1 and phosphorylation of CREB. Lower panel: NIH3T3-A14-Epac1 cells were treated in duplicate for 15 min with increasing concentrations of 8-pCPT-2′-O-Me-cAMP. Cells were lysed and equal amounts of cell lysate were incubated with precoupled GST-RalGDSRBD and Rap1 was assayed by immunoblotting with Rap1 antibody.
(§3) Therefore, 8-CPT-2′-O-Me-cAMP was tested in NIH3T3-A14-Epac1 cells for the activation of Epac, using Rap1 as a read-out, and of PKA, using phosphorylation of the common PKA substrate CREB 29 as a read-out.
Antibodies against phosphorylated CREB (directed against phosphorylated Serl33) were obtained from Cell Signalling (Beverly, Mass., USA), and antibodies against K-Rev/Rap1 and polyclonal anti-HA were obtained from Santa Cruz Biotechnology (Santa Cruz, Calif., USA). The following inhibitors and stimuli were used at concentrations indicated, unless stated otherwise: RGD peptide (100 μM) and H-89 (10 μM) was obtained from Biomol Research Laboratories Inc. (Plymouth Meeting, Pa., USA). 8-Br-cAMP (1 mM) was obtained from BIOLOG Life Science Institute (Bremen, Germany). TPA (12-O-tetradecanoylphorbol-13-acetate) was obtained from Sigma (Steinheim, Germany) and was used at a concentration of 100 ng/ml. […]

[4] = tested on: Rap1; assay: Rap1 activation assay (read-out for Epac) in NIH3T3-A14-Epac1 cells; conditions: 15 min, 8-Br-cAMP 1 mM
Description: as §2, §3
NIH3T3-A14 cells, stably expressing Epac1, were grown in DMEM with 10% fetal calf serum and 2 μg/ml puromycin. NIH-OVCAR3 (Ovcar3) cells were maintained in RPMI with 10% fetal calf serum. Transient transfection of Ovcar3 cells was performed using the FuGENE 6 transfection reagent (Roche Diagnostics, Mannheim, Germany) according to the manufacturer's procedures, using 6 μg total DNA including a CMV-luciferase plasmid (0.2 μg).
Rap activation assays were performed as described previously (16-18). Briefly, cells were lysed in lysis buffer containing 10% glycerol, 1% Nonidet P-40, 50 mM Tris-Cl pH7.5, 200 mM NaCl, 2mM MgCl2, 1 μM leupeptin, 0.1 μM aprotinin, 5 mM NaF, 1 mM NaVO3. Lysates were clarified by centrifugation and incubated with GST-tagged RalGDS-RBD pre-coupled to glutathione beads to specifically pull down the GTP-bound forms of Rap1. Samples were incubated for 1 hr at 4° C. while tumbling. Beads were washed four times in lysis buffer, and the remaining fluid was removed with an insulin syringe. Proteins were eluted with Laemmli sample buffer and analyzed by sodium dodecyl sulphate (SDS)-polyacrylamide gel electrophoresis and Western blotting using Rap1 antibodies. As a control, Rap1 levels in whole cell lysates were determined.

Structure (SMILES) | effect on 8-pCPT-2′-O-Me-cAMP activation of Rap1 [1] | effect on 8-pCPT-2′-O-Me-cAMP induction of adhesion [2] | phosphorylation of CREB [3] | activation of Rap1 [4]
O=S(=O)(NCCNC/C=C/c1ccc(Br)cc1)c1cccc2cnccc12 [Compound H-89, H-89, reference compound] | insensitive | insensitive |  | 
Nc1ncnc2c1nc(Br)n2[C@@H]1O[C@@H]2COP(=O)(O)O[C@H]2[C@H]1O [Compound 8-Br-cAMP, 8-Br-cAMP, reference compound] |  |  | induced both the activation of Rap1 and the phosphorylation of CREB | induced both the activation of Rap1
